Source: article PMC6199744, “Development of Chemical Proteomics for the Folateome and Analysis of the Kinetoplastid Folateome” (ACS Infectious Diseases, 2018)

Tests used:
TB927.7.1340 = assay: Multitargeted bead mixture competition; type: binding; settings: free ligand 100 μM, T. brucei lysate
[1] = test system: BRANCHED-CHAIN AMINO ACID AMINOTRANSFERASE, PUTATI (TB427.02.4590); assay: Multitargeted bead mixture competition; type: binding; settings: free ligand 100 μM, T. brucei lysate
TB11.03.0290 = assay: Multitargeted bead mixture competition; type: binding, T. brucei; settings: multitargeted bead mixture; free ligand 100 μM; T. brucei lysate; TB11.03.0290
TB09.211.1690 = assay: Multitargeted bead mixture competition; type: binding; settings: free ligand 100 μM, T. brucei lysate
[2] = test system: NGG1 INTERACTING FACTOR 3-LIKE (Tb427tmp.02.5000); type: binding; settings: multitargeted bead mixture; free ligand 100 μM; T. brucei lysate; Tb427tmp.02.5000
[3] = test system: HYPOTHETICAL PROTEIN, CONSERVED (TB427.03.2670); assay: Multitargeted bead mixture competition; type: binding; settings: free ligand 100 μM, T. brucei lysate
DHFR-TS = DHFR-TS (Trypanosoma brucei brucei, UniProt Q27783); assay: Individual bead pull down with competing free ligand; settings: competing free ligand 100 μM; bead = immobilized compound of the row; T. brucei lysate; read-out: % Inhibition of protein binding to bead, DHFR-TS, T. brucei
Description: (§1) Antifolate compounds were immobilized onto NHS-activated sepharose beads/reverse sepharose beads through amide coupling via either an amino or carboxyl group (see Figure 3). The reaction was monitored by observing the disappearance of test compound by LCMS, after which the unreacted coupling sites were capped with NHS-acetate or aminoethanol.
(§2) Folate metabolizing enzymes are not highly abundant proteins,[19],[20] potentially making their identification by MS difficult. Beads will not only pull down the low abundant high affinity binders but also attract highly abundant, low affinity binders or so-called nonspecific binders. Sometimes, the nonspecific high abundant proteins can mask true binders. The target identification approach used in this study overcomes this issue by performing competition studies. Various concentrations of the free unmodified inhibitor (test compound) were preincubated with the lysate, prior to addition of the beads derivatized with immobilized compounds. Following washing of the bound proteins from the beads and tryptic digest, the peptides were labeled using the TMTs and then pooled. Differences in peptide abundance were analyzed by fragmentation of the isotope-coded isobaric tags in the MS/MS spectra (Figure 5).[9],[11],[12],[21] While the competition experiments with test compound confirm specific binding, it is also possible that some proteins will have a stronger binding interaction with the derivatized beads than the competing test compound, due to subtle differences in the interactions between the immobilized compound and the test compound with the target protein.

PTR-1 = PTR-1 (Trypanosoma brucei brucei, UniProt O76290); assay: as above; settings: competing free ligand 100 μM; bead = immobilized compound of the row; T. brucei lysate; read-out: % Inhibition of protein binding to bead, PTR-1, T. brucei
Description: as §1, §2

[4] = target: DIHYDROFOLATE REDUCTASE-T[…] (TB427.07.5480) (Trypanosoma brucei brucei, UniProt Q27783); assay: Multitargeted bead mixture competition; type: binding; settings: T. brucei lysate
[5] = test system: SUCCINYL-COA SYNTHETASE ALPHA SUBUNIT, PUTATIVE (Tb427.03.2230); assay: Multitargeted bead mixture competition; type: binding; settings: free ligand 100 μM, T. brucei lysate
[6] = test system: HYPOTHETICAL PROTEIN, CONSERVED (Tb427.10.6100); assay: Multitargeted bead mixture competition; type: binding; settings: free ligand 100 μM, T. brucei lysate
[7] = test system: PEPTIDYL-PROLYL CIS-TRANS ISOMERASE (CYCLOPHILIN- (TB427TMP.211.1350)); assay: Multitargeted bead mixture competition; type: binding; settings: free ligand 100 μM, T. brucei lysate
[8] = test system: LMJF.30.2970 (glyceraldehyde-3-phosphate dehydrogenase, GAPDH); assay: Individual MTX bead pull down; type: binding; settings: L. major
[9] = test system: LMJF.26.2560 (hypothetical conserved ATP binding protein); assay: Individual MTX bead pull down; settings: L. major
TB927.8.6460 = assay: Multitargeted bead mixture competition; type: binding, T. brucei; settings: multitargeted bead mixture; free ligand 100 μM; T. brucei lysate; TB927.8.6460
[10] = target: GLYCERALDEHYDE 3-PHOSPHATE DEHYDROGENASE, GLYCOSOM (TB427.06.4300) (Trypanosoma brucei brucei, UniProt P22512); assay: Multitargeted bead mixture competition; type: binding, T. brucei
[11] = test system: HYPOTHETICAL PROTEIN, CONSERVED (TB427.05.3680); assay: Multitargeted bead mixture competition; type: binding; settings: free ligand 100 μM, T. brucei lysate
[12] = test system: PHOSPHATIDYLINOSITOL-4-PHOSPHATE 5-KINASE, PUTATIV (TB427.10.3890); assay: Multitargeted bead mixture competition; type: binding; settings: free ligand 100 μM, T. brucei lysate
methylene-THF-reductase = methylene-THF-reductase (Homo sapiens, UniProt P42898); assay: Multitargeted bead mixture competition, HeLa cell extract; type: binding; settings: bead mixture; HeLa cell extract
[13] = test system: IRON/ASCORBATE OXIDOREDUCTASE FAMILY PROTEIN, PUTA (Tb427.02.6180); assay: Multitargeted bead mixture competition; type: binding, T. brucei; settings: multitargeted bead mixture; free ligand 100 μM; T. brucei lysate; Tb427.02.6180
[14] = test system: PROTEIN KINASE, PUTATIVE (Tb427.03.1570); assay: Multitargeted bead mixture competition; type: binding; settings: free ligand 100 μM, T. brucei lysate
TB427.04.1870 = assay: Multitargeted bead mixture competition; type: binding; settings: free ligand 100 μM, T. brucei lysate
[15] = test system: ACETYLTRANSFERASE, PUTATIVE (Tb427.08.3310); assay: Multitargeted bead mixture competition; type: binding; settings: free ligand 100 μM, T. brucei lysate
[16] = target: PTERIDINE REDUCTASE (TB927.8.2210) (Trypanosoma brucei brucei, UniProt O76290); assay: Multitargeted bead mixture competition; type: binding, T. brucei; settings: T. brucei lysate
[17] = test system: CHOLINE KINASE (TB427TMP.18.0017); assay: Multitargeted bead mixture competition; type: binding, T. brucei; settings: multitargeted bead mixture; free ligand 100 μM; T. brucei lysate; TB427TMP.18.0017 CHOLINE KINASE
TB927.8.6760 = assay: Multitargeted bead mixture competition; type: binding; settings: free ligand 100 μM, T. brucei lysate

Sequence of UniProt Q27783 (Q27783 whole entry): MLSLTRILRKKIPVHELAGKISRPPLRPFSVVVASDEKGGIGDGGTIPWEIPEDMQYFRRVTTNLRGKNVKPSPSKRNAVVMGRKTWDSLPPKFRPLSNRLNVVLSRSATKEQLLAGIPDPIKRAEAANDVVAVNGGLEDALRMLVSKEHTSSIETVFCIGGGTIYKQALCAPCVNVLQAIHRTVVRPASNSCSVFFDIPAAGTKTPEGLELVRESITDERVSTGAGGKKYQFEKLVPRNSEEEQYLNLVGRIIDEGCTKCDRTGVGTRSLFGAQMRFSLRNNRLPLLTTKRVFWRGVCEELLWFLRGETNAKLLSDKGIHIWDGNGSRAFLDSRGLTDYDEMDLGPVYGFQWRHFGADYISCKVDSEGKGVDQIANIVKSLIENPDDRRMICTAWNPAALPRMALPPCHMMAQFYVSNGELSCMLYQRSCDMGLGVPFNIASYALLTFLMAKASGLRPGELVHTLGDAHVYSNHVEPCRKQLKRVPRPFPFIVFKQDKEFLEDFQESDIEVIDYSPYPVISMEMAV
Sequence of UniProt P22512 (P22512 whole entry): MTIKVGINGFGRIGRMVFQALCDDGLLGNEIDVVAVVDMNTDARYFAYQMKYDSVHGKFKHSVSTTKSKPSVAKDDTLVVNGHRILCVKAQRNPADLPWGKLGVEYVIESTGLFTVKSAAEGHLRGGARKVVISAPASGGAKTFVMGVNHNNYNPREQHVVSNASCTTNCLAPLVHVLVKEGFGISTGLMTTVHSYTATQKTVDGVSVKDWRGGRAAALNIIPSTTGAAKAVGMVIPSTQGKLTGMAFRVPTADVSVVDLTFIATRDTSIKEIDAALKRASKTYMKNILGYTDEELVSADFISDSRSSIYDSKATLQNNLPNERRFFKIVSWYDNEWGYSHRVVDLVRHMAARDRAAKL
Sequence of PTERIDINE REDUCTASE (TB927.8.2210) (O76290 entry or part of it): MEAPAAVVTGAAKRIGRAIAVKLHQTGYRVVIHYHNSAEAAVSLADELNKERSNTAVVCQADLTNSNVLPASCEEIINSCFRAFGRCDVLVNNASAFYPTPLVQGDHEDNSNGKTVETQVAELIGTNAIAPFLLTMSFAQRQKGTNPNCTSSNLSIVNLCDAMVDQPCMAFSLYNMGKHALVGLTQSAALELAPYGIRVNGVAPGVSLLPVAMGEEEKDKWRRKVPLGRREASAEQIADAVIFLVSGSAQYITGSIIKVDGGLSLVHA
Sequence of methylene-THF-reductase (P42898 whole entry): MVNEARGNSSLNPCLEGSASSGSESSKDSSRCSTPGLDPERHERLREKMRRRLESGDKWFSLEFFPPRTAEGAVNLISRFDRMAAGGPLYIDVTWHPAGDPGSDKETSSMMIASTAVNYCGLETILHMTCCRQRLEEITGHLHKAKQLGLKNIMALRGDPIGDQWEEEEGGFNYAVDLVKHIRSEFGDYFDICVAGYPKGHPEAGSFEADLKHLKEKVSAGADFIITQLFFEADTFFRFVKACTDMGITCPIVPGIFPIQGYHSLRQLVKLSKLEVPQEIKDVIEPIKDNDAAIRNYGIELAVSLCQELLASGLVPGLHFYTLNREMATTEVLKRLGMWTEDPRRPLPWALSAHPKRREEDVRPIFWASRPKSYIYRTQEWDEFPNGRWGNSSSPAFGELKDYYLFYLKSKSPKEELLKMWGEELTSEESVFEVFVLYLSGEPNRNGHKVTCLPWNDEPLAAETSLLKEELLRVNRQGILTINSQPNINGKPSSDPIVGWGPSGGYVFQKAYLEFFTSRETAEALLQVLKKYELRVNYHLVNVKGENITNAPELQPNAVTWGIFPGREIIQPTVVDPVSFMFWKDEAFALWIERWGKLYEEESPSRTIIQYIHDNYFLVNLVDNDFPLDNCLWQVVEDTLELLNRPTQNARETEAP
Sequence of DHFR-TS (Q27783 whole entry): as the sequence (Q27783 whole entry) above
Sequence of PTR-1 (O76290 entry or part of it): as the sequence (O76290 entry or part of it) above

Structure (SMILES): CN(Cc1cnc2nc(N)nc(N)c2n1)c1ccc(C(=O)N[C@@H](CCC(=O)O)C(=O)O)cc1 [MTX, methotrexate]
- percentage of competition from bead binding (TB927.7.1340): 51%
- percentage of competition from bead binding [1]: 34%
- percentage of competition from bead binding (TB11.03.0290): 57%
- percentage of competition from bead binding (TB09.211.1690): 51%
- percentage of competition from bead binding [2]: 31%
- percentage of competition from bead binding [3]: 50%
- inhibition at 100 µM (DHFR-TS): 95%
- inhibition at 100 µM (PTR-1): 90%
- competition for DHFR-TS (Figure 6) ([4]; bead mixture, compound 100 μM): compete for DHFR-TS
- percentage of competition from bead binding ([4]; multitargeted bead mixture, free ligand 100 μM, TB427.07.5480 DHFR-TS): 85%
- percentage of competition from bead binding [5]: 18%
- percentage of competition from bead binding [6]: 23%
- percentage of competition from bead binding [7]: 50%
- binding of LMJF.30.2970 (GAPDH) to MTX [8]: bind to MTX
- binding of LMJF.26.2560 to MTX [9]: bind to MTX
- percentage of competition from bead binding (TB927.8.6460): 54%
- binding to GAPDH (Tb427.06.4300) ([10]; bead mixture, T. brucei lysates): bound
- percentage of competition from bead binding ([10]; multitargeted bead mixture, free ligand 100 μM, T. brucei lysate, TB427.06.4300 GAPDH): 56%
- percentage of competition from bead binding [11]: 69%
- percentage of competition from bead binding [12]: 56%
- inhibition, methylene-THF-reductase (methylene-THF-reductase): 77%
- percentage of competition from bead binding [13]: 17%
- percentage of competition from bead binding [14]: 9%
- percentage of competition from bead binding (TB427.04.1870): 58%
- percentage of competition from bead binding [15]: 31%
- competition for PTR1 (Figure 6) ([16]; bead mixture, compound 100 μM): competed for PTR1
- percentage of competition from bead binding ([16]; multitargeted bead mixture, free ligand 100 μM, TB927.8.2210 PTERIDINE REDUCTASE): 93%
- percentage of competition from bead binding [17]: 57%
- percentage of competition from bead binding (TB927.8.6760): 50%
